Tests used:
[1] = target: T1, Human CB1 receptor (hCB1) (Homo sapiens, UniProt P21554); assay: hCB1 receptor binding (3H-CP55,940 displacement); conditions: hCB1 membranes, Ki=IC50/(1+[rad]/Kd)
T1 construct: purchased Receptor Biology
Method: hCB1 and hCB2 Receptor Binding
Human CB1 receptor from Receptor Biology (hCB1) or human CB2 receptor from BioSignal (hCB2) membranes are thawed at 37° C., passed 3 times through a 25-gauge blunt-end needle, diluted in the cannabinoid binding buffer (50 mM Tris, 2.5 mM EDTA, 5 mM MgCl2, and 0.5 mg/mL BSA fatty acid free, pH 7.4) and aliquots containing the appropriate amount of protein are distributed in 96-well plates. […] The total and non-specific binding are determined in the absence and presence of 0.2 μM of HU210 respectively. The plates are vortexed and incubated for 60 minutes at room temperature, filtered through Unifilters GF/B (presoaked in 0.1% polyethyleneimine) with the Tomtec or Packard harvester using 3 mL of wash buffer (50 mM Tris, 5 mM MgCl2, 0.5 mg BSA pH 7.0). The filters are dried for 1 hour at 55° C. The radioactivity (cpm) is counted in a TopCount (Packard) after adding 65 μl/well of MS-20 scintillation liquid.
Based on the above assays, the dissociation constant (Ki) for a particular compound of the invention towards a particular receptor is determined using the following equation:
[rad] is a standard or reference radioactive ligand concentration at that moment; and
Kd is the dissociation constant of the radioactive ligand towards the particular receptor.

[2] = target: T1, Human CB1 receptor (hCB1); assay: hCB1 GTPγS binding; type: biochemical; conditions: for EC50: hCB1 membranes, GTPγ35S, 10-point dose-response; for Emax: maximal stimulated binding determined with 10 μM Win 55,212-2
Method: hCB1 and hCB2 GTPγS Binding
Human CB1 receptor from Receptor Biology (hCB1) or human CB2 receptor membranes (BioSignal) are thawed at 37° C., passed 3 times through a 25-gauge blunt-end needle and diluted in the GTPγS binding buffer (50 mM Hepes, 20 mM NaOH, 100 mM NaCl, 1 mM EDTA, 5 mM MgCl2, pH 7.4, 0.1% BSA). […] The basal and maximal stimulated binding is determined in absence and presence of 1 μM (hCB2) or 10 μM (hCB1) Win 55, 212-2 respectively. The membranes are pre-incubated for 5 minutes with 56.25 μM (hCB2) or 112.5 μM (hCB1) GDP prior to distribution in plates (15 μM (hCB2) or 30 μM (hCB1) GDP final). The plates are vortexed and incubated for 60 minutes at room temperature, filtered on Unifilters GF/B (presoaked in water) with the Tomtec or Packard harvester using 3 ml of wash buffer (50 mM Tris, 5 mM MgCl2, 50 mM NaCl, pH 7.0). The filters are dried for 1 hour at 55° C. The radioactivity (cpm) is counted in a TopCount (Packard) after adding 65 μl/well of MS-20 scintillation liquid. Antagonist reversal studies are done in the same way except that (a) an agonist dose-response curve is done in the presence of a constant concentration of antagonist, or (b) an antagonist dose-response curve is done in the presence of a constant concentration of agonist.

T1 sequence (P21554 whole entry): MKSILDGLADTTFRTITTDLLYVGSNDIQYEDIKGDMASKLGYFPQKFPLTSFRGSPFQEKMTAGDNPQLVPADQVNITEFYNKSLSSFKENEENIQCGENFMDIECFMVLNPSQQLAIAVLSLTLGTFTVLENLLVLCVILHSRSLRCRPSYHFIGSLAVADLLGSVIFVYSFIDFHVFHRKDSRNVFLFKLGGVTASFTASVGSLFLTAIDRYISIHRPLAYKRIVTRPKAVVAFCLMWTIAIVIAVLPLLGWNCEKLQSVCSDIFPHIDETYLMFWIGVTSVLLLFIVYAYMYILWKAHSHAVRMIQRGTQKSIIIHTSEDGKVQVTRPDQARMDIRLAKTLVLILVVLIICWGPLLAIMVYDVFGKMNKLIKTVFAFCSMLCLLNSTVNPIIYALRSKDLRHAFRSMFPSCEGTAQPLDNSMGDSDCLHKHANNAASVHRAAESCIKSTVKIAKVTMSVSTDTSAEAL

Compound | Ki [1] [nM] | EC50 [2] [nM] | Emax [2] [%]
C[C@H](C(=O)NCCF)N(C)C(=O)c1ccc2c(c1)c1c(n2C)CCC(C2CCOCC2)C1 (stereo partly drawn) [N-[(1R)-1-(2-fluoroethylcarbamoyl)ethyl]-N,9-dimethyl-6-(oxan-4-yl)-5,6,7,8-tetrahydrocarbazole-3-carboxamide] | 157 | 353 | 107
CCNC(=O)CN(CC)C(=O)c1ccc2c(c1)c1c(n2CCF)CCC(C2CCOCC2)C1 (centres unmarked) [N-ethyl-N-(ethylcarbamoylmethyl)-9-(2-fluoroethyl)-6-(oxan-4-yl)-5,6,7,8-tetrahydrocarbazole-3-carboxamide] | 202 | 438 | 109
C[C@H](C(=O)NC1CC1)N(C)C(=O)c1ccc2c(c1)c1c(n2C)CCC(C2CCOCC2)C1 (stereo partly drawn) [N-[(1R)-1-(cyclopropylcarbamoyl)ethyl]-N,9-dimethyl-6-(oxan-4-yl)-5,6,7,8-tetrahydrocarbazole-3-carboxamide] | 19.6 | 29.6 | 120
CCN(CC(=O)NC[C@@H](C)O)C(=O)c1ccc2c(c1)c1c(n2C)CCC(C2CCOCC2)C1 (stereo partly drawn) [N-ethyl-N-[[(2R)-2-hydroxypropyl]carbamoylmethyl]-9-methyl-6-(oxan-4-yl)-5,6,7,8-tetrahydrocarbazole-3-carboxamide] | 182 | 318 | 124
CN(CCCC(=O)NC1CC1)C(=O)c1ccc2c(c1)c1c(n2C)CCC(C2CCOCC2)C1 (centres unmarked) [N-[3-(cyclopropylcarbamoyl)propyl]-N,9-dimethyl-6-(oxan-4-yl)-5,6,7,8-tetrahydrocarbazole-3-carboxamide] | 7.1 | 16.2 | 113
Cn1c2c(c3cc(C(=O)N4CC[C@H](C(=O)NCC(F)F)C4)ccc31)CC(C1CCOCC1)CC2 (stereo partly drawn) [(3S)—N-(2,2-difluoroethyl)-1-[9-methyl-6-(oxan-4-yl)5,6,7,8-tetrahydrocarbazole-3-carbonyl]pyrrolidine-3-carboxamide] | 49.5 | 82.6 | 125
Cn1c2c(c3cc(C(=O)N4CC[C@H](C(=O)NCCF)C4)ccc31)CC(C1CCOCC1)CC2 (stereo partly drawn) [(3S)—N-(2-fluoroethyl)-1-[9-methyl-6-(oxan-4-yl)5,6,7,8-tetrahydrocarbazole-3-carbonyl]pyrrolidine-3-carboxamide] | 30.5 | – | 119
CCN(CCCC(=O)NC1CC1)C(=O)c1ccc2c(c1)c1c(n2C)CCC(C2CCOCC2)C1 (centres unmarked) [N-[3-(cyclopropylcarbamoyl)propyl]-N-ethyl-9-methyl-6-(oxan-4-yl)-5,6,7,8-tetrahydrocarbazole-3-carboxamide] | 2.8 | 4.9 | 116
CCNC(=O)CN(CC)C(=O)c1ccc2c(c1)c1c(n2CC2CC2)CCC(C2CCOCC2)C1 (centres unmarked) [9-(cyclopropylmethyl)-N-ethyl-N-(ethylcarbamoylmethyl)-6-(oxan-4-yl)-5,6,7,8-tetrahydrocarbazole-3-carboxamide] | 65.2 | 157 | 90
CCN(CC(=O)NCC(F)F)C(=O)c1ccc2c(c1)c1c(n2C)CCC(C2CCOCC2)C1 (centres unmarked) [N-(2,2-difluoroethylcarbamoylmethyl)-N-ethyl-9-methyl-6-(oxan-4-yl)-5,6,7,8-tetrahydrocarbazole-3-carboxamide] | 17.1 | 39.9 | 116
CN(CCN(C)C(=S)NC1CC1)C(=O)c1ccc2c(c1)c1c(n2C)CCC(C2CCOCC2)C1 (centres unmarked) [N-[2-(cyclopropylthiocarbamoyl-methyl-amino)ethyl]-N,9-dimethyl-6-(oxan-4-yl)-5,6,7,8-tetrahydrocarbazole-3-carboxamide] | 9.9 | 161 | 106
CCN(CC(=O)NCCOC)C(=O)c1ccc2c(c1)c1c(n2C)CCC(C2CCOCC2)C1 (centres unmarked) [N-ethyl-N-(2-methoxyethylcarbamoylmethyl)-9-methyl-6-(oxan-4-yl)-5,6,7,8-tetrahydrocarbazole-3-carboxamide] | 219 | 457 | 113
CCNC(=O)[C@H]1CCN(C(=O)c2ccc3c(c2)c2c(n3C)CCC(C3CCOCC3)C2)C1 (stereo partly drawn) [(3S)—N-ethyl-1-[9-methyl-6-(oxan-4-yl)5,6,7,8-tetrahydrocarbazole-3-carbonyl]pyrrolidine-3-carboxamide] | 69.9 | 103 | 122
CCn1c2c(c3cc(C(=O)N(C)CCCC(=O)NCCO)ccc31)CC(C1CCOCC1)CC2 (centres unmarked) [9-ethyl-N-[3-(2-hydroxyethylcarbamoyl)propyl]-N-methyl-6-(oxan-4-yl)-5,6,7,8-tetrahydrocarbazole-3-carboxamide] | 236 | 597 | 119
CN(CCCC(=O)NCCO)C(=O)c1ccc2c(c1)c1c(n2C)CCC(C2CCOCC2)C1 (centres unmarked) [N-[3-(2-hydroxyethylcarbamoyl)propyl]-N,9-dimethyl-6-(oxan-4-yl)-5,6,7,8-tetrahydrocarbazole-3-carboxamide] | 90.9 | 155 | 122
CCn1c2c(c3cc(C(=O)N(C)CCCC(=O)NC)ccc31)CC(C1CCOCC1)CC2 (centres unmarked) [9-ethyl-N-methyl-N-[3-(methylcarbamoyl)propyl]-6-(oxan-4-yl)-5,6,7,8-tetrahydrocarbazole-3-carboxamide] | 59.2 | 146 | 121
CCNC(=O)[C@@H](C)N(C)C(=O)c1ccc2c(c1)c1c(n2C)CCC(C2CCOCC2)C1 (stereo partly drawn) [N-[(1R)-1-(ethylcarbamoyl)ethyl]-N,9-dimethyl-6-(oxan-4-yl)-5,6,7,8-tetrahydrocarbazole-3-carboxamide] | 77.1 | 237 | 112
CCNC(=O)CCCN(C)C(=O)c1ccc2c(c1)c1c(n2CCF)CCC(C2CCOCC2)C1 (centres unmarked) [N-[3-(ethylcarbamoyl)propyl]-9-(2-fluoroethyl)-N-methyl-6-(oxan-4-yl)-5,6,7,8-tetrahydrocarbazole-3-carboxamide] | 237 | 372 | 109
CCN(CC(=O)NCCF)C(=O)c1ccc2c(c1)c1c(n2S(=O)(=O)CC)CCC(C2CCOCC2)C1 (centres unmarked) [N-ethyl-9-ethylsulfonyl-N-(2-fluoroethylcarbamoylmethyl)-6-(oxan-4-yl)-5,6,7,8-tetrahydrocarbazole-3-carboxamide] | 12.9 | 12.9 | 107
CCN(CCCC(=O)NCCF)C(=O)c1ccc2c(c1)c1c(n2C)CCC(C2CCOCC2)C1 (centres unmarked) [N-ethyl-N-[3-(2-fluoroethylcarbamoyl)propyl]-9-methyl-6-(oxan-4-yl)-5,6,7,8-tetrahydrocarbazole-3-carboxamide] | 10.1 | 9.2 | 135
CC1CCN(C(=O)c2ccc3c(c2)c2c(n3C)CCC(C3CCCCC3)C2)CC1 (centres unmarked) [(6-cyclohexyl-9-methyl-5,6,7,8-tetrahydrocarbazol-3-yl)-(4-methyl-1-piperidyl)methanone] | 29.5 | 65.1 | 106
Cn1c2c(c3cc(C(=O)N4CCC(C(=O)NCCF)C4)ccc31)CC(C1CCOCC1)CC2 (centres unmarked) [N-(2-fluoroethyl)-1-[9-methyl-6-(oxan-4-yl)5,6,7,8-tetrahydrocarbazole-3-carbonyl]pyrrolidine-3-carboxamide] | 126 | 263 | 121
Cn1c2c(c3cc(C(=O)N4CC[C@H](C(=O)NCC5CC5)C4)ccc31)CC(C1CCOCC1)CC2 (stereo partly drawn) [(3S)—N-(cyclopropylmethyl)-1-[9-methyl-6-(oxan-4-yl)5,6,7,8-tetrahydrocarbazole-3-carbonyl]pyrrolidine-3-carboxamide] | 109 | 251 | 117
CCNC(=O)CN(CC)C(=O)c1ccc2c(c1)c1c(n2C2CCC2)CCC(C2CCOCC2)C1 (centres unmarked) [9-cyclobutyl-N-ethyl-N-(ethylcarbamoylmethyl)-6-(oxan-4-yl)-5,6,7,8-tetrahydrocarbazole-3-carboxamide] | 113 | 233 | 82

— patent US20090062251A1, “Novel Compounds 002” (ASTRAZENECA AB, priority 2007, published 2009)
